Values after ≈ are worked out from the molar mass of the structure shown. Square brackets hold non-standard residues; d marks the D form. Peptide text beside a SMILES is read from it.
What was measured:
[1] = tested on: Cryptococcus neoformans ATCC 66031; format: cell-based
Protocol: (§1) The antifungal activity of the diastereomers was examined in sterile 96-well plates (Nunc F96 microtiter plates) in a final volume of 200 μL as follows: 100 μl of a suspension containing fungi at concentration of 1×10^4 Colony-Forming Units (CFU)/ml in culture medium (RPMI 1640, 0.165 M MOPS pH 7.0, with L-glutamine, without NaHCO3) was added to 100 μl of water containing the peptide in serial 2-fold dilutions in water. The fungi were incubated in the presence of the diastereomeric peptides for 24-48 h at 35° C. in a Binder KB115 incubator under agitation. Growth inhibition was determined by measuring the absorbance at 620 nm with a Microplate autoreader E1309 (Bio-tek Instruments). Antifungal activity is expressed as the minimal inhibitory concentration (MIC), the concentration at which 100% inhibition of growth was observed after the incubation time mentioned above. The fungi used were: Aspergillus niger ATCC 9642, Candida albicans ATCC 10231 and Cryptococcus neoformans ATCC 66031.

[2] = tested on: Candida albicans ATCC 10231; format: cell-based
Protocol: as §1

[3] = tested on: Aspergillus niger ATCC 9642; format: cell-based
Protocol: as §1

[4] = In vitro anticancer activity, Trypan blue cell viability, LC50
Protocol: (§2) The anticancer activity of the diastereomers 1, 2, 8, 9 and 10 was examined against B16 F10 mouse melanoma cell line. Melanoma cells were grown in RPMI-1640 medium supplemented with 10% fetal calf serum and antibiotics, at 37° C., in humidified atmosphere at 5% CO2 and 95% air. In addition, the cell-selectivity of the diastereomeric peptides was studied by examining their effect on NIH-3T3 normal fibroblasts cell line. NIH-3T3 mouse fibroblasts cells were grown in DMEM medium supplemented with 10% bovine calf serum and antibiotics under the same conditions as described above for B16 F10 mouse melanoma cells. Melanoma cells (2×10^5 cells ml^−1) or NIH-3T3 cells (2.5×10^5 cells ml^−1) were seeded in tissue culture plates (3.5 cm). After 48 h, cells were washed thrice with the corresponding medium. Then the cells were incubated at 37° C. in medium (without serum and antibiotics) in the presence of the tested diastereomeric peptides dissolved in PBS, at different concentrations. […] Following 24 h of incubation, the cells were harvested with trypsin (0.25%)-EDTA (0.05%) and centrifuiged for 10 min at 270×g. The precipitated cells were suspended in the corresponding medium and counted in a hemocytometer (Neubauer). Cell viability was determined by Trypan blue dye exclusion.

[5] = tested on: B16 F10 mouse melanoma cell line; test: as above
Protocol: as §2

[6] = Cell selectivity, Trypan blue cell viability, LC50; format: cell-based, mouse; settings: 50% cell mortality after 24 h incubation, medium without serum, read-out: Lethal Concentration (LC50), NIH-3T3 fibroblasts
Mycoplasma pneumoniae = format: cell-based; settings: 1 h
Protocol: In order to examine the activity of the diastereomers of the invention against mycoplasma, 500 μl of Mycoplasma pneumoniae cells were introduced into a cell culture flask containing 50 ml of SP-4 growth media (Jacob et al., 1985). The cells were grown at 37° C. for 3-4 days. Before the assay, the mycoplasma cells were washed 3 times with serum-free medium (without fetal calf serum) and then harvested into 5 ml of the same medium. The cells' concentration was adjusted to approximately 1×10^6 cells ml^−1. Thereafter, 150 μl of either diastereomer 1 or 2 in phosphate-buffered saline (PBS) were added to 150 μl mycoplasma cells. The mixture was incubated for 1 hour at room temperature. As a control, cells were incubated with PBS alone. At the end of the incubation period, 150 μl of the mixture were inoculated into tissue culture flasks (in duplicate) containing 15 ml SP-4 media. After 3-4 days, the mycoplasma viability was determined by counting the number of cells grown in each flask.

[7] = tested on: vancomycin-resistant Enterococcus faecium (VRE) ATCC 700221; format: cell-based
Protocol: (§3) The antibacterial activity of the peptides was examined in sterile 96-well plates (Nunc F96 microtiter plates) in a final volume of 100 μl as follows: Aliquots (50 μl) of a suspension containing bacteria at concentration of 1×10^6 Colony-Forming Units (CFU)/ml in culture LB (Lauria broth) medium were added to 50 μl of water containing the peptide in serial 2-fold dilutions in water. Inhibition of growth was determined by measuring the absorbance at 600 nm with a Microplate autoreader E1309 (Bio-tek Instruments), after an incubation time of 18-20 h at 37° C. Antibacterial activities were expressed as the minimal inhibitory concentration (MIC), the concentration at which 100% inhibition of growth was observed after 18-20 h of incubation. The bacteria used were: Escherichia coli ATCC 25922, Acinetobacter baumannii ATCC 19606, Pseudomonas aeruginosa ATCC 27853, Staphylococcus aureus ATCC 6538P, Enterococcus faecalis ATCC 29212, Enterobacter cloacae ATCC 49141. The antibacterial activity of peptides 2 and 6 was also examined against resistant bacteria: methicilin-resistant Staphylococcus aureus ([…]) ATCC 700698 and vancomycin-resistant Enterococcus faecium (VRE) ATCC 700221.

[8] = tested on: methicilin-resistant Staphylococcus aureus (MRSA) ATCC 700698; format: cell-based
Protocol: as §3

human breast MCF-7 cells = test: Xenograft model of human breast MCF-7 cells in SCID mice; format: in vivo; settings: mouse, in vivo
Protocol: The in-vivo anticancer assay was conducted on SCID (Severe Combined Immune Deficiency) mice using the xenograft model of human breast MCF-7 cells. Groups of 6 SCID female mice weighing 18-20 g (6-week old), bred in an animal isolator (IVC racks under specific pathogen-free (SPF) conditions at 24±1° C., were used. Viable human breast carcinoma MCF-7 cells (ATCC HTB-22−1×10^7 cells in 0.2 ml of PBS) were injected subcutaneously (s.c.) into the dorsal side of SCID mice. 50 μg/mouse of estradiol benzoate was injected s.c. weekly as a supplement for 4 weeks. […] Mitomycin at a dose of 2 mg/kg was administered intraperitoneally (IP) twice a week for 5 doses. The tumor size, body weight and the signs of overt animal toxicity after each treatment were recorded and observed. At the end of the experiment, hematological analysis was carried out.

[9] = In vivo toxicity, single i.v. bolus injection in CD1 mice; design: species or system CD1 male mice
Protocol: The in vivo toxicity of the liposomal peptide 9 preparation composed of the lipids PC/PG (9:1 w/w) at a 10:1 w/w lipid/peptide ratio was examined. Groups of 5 CD1 male mice weighing 24-27 g (5-week old), bred in an animal isolator (IVC racks) under specific pathogen-free (SPF) conditions at 24±1° C., were used. Twelve mg/kg liposomal peptide 9 or peptide 9 alone dissolved in PBS in a dosing volume of 10 ml/kg, were administered by single i.v. bolus injection via the mice tail vein. In parallel, control groups received i.v. injections of equivalent liposomes alone or PBS in a dosing volume of 10 ml/kg.

A549 lung carcinoma = format: cell-based, human; settings: 24 h
Protocol: (§4) Aliquots of 100 μl of tumor cell suspension (about 2.5-5×10^3/well) were placed in 96-well microtiter plates in an atmosphere of 5% CO2 at 37° C. […] At the end of incubation, 20 μl of AlamarBlue 75% reagent was added to each well for another 6-hour incubation before detection of cell viability by fluorescence intensity. Fluorescence intensity was measured using a Spectraflour Plus plate reader with excitation at 530 nm and emission at 590 nm. The assays were used to detect changes in cell proliferation based on the ability of viable cells to cause AlamarBlue to change from its oxidized (non-fluorescent, blue) to a reduced (fluorescent, red) form. With the results obtained from the AlamarBlue reaction, cell proliferation can be quantified and metabolic activity of viable cells can be examined.

[10] = tested on: PC-3 prostate adenocarcinoma; format: cell-based, human; settings: 24 h
Protocol: as §4

[11] = tested on: SK-MEL- (ATCC HTB-70) malignant melanoma; format: cell-based, human; settings: 24 h
Protocol: as §4

[12] = tested on: MCF-7 breast adenocarcinoma; format: cell-based, human; settings: 24 h
Protocol: as §4

[13] = tested on: HT-29 colon adenocarcinoma; format: cell-based, human; settings: 24 h
Protocol: as §4

[14] = tested on: Staphylococcus aureus ATCC 6538P
Protocol: (§5) The antibacterial activity of the peptides was examined in sterile 96-well plates (Nunc F96 microtiter plates) in a final volume of 100 μl as follows: Aliquots (50 μl) of a suspension containing bacteria at concentration of 1×10^6 Colony-Forming Units (CFU)/ml in culture LB (Lauria broth) medium were added to 50 μl of water containing the peptide in serial 2-fold dilutions in water. Inhibition of growth was determined by measuring the absorbance at 600 nm with a Microplate autoreader E1309 (Bio-tek Instruments), after an incubation time of 18-20 h at 37° C. Antibacterial activities were expressed as the minimal inhibitory concentration (MIC), the concentration at which 100% inhibition of growth was observed after 18-20 h of incubation. […]
(§6) The antibacterial activity of the resulting liposomal diastereomeric peptide preparations were examined as described in Example 2 above. The MICs of liposomal peptide 9 in various lipid compositions and peptide/lipid ratios (as described above), or of liposomes at lipid compositions equivalent to the loaded_liposomes (not shown) or peptide 9 alone, were determined using the following bacteria: Acinetobacter baumannii ATCC 19606, and Staphylococcus aureus ATCC 6538P.

[15] = tested on: Acinetobacter baumannii ATCC 19606
Protocol: as §5, §6

CC(C)C[C@H](NC(=O)[C@H](CCCCN)NC(=O)[C@@H](CC(C)C)NC(=O)[C@@H](CC(C)C)NC(=O)[C@H](CC(C)C)NC(=O)[C@@H](N)CCCCN)C(=O)N[C@@H](CC(C)C)C(=O)N[C@H](CC(C)C)C(=O)N[C@@H](CCCCN)C(=O)N[C@H](CC(C)C)C(=O)N[C@@H](CC(C)C)C(=O)N[C@@H](CCCCN)C(N)=O [Peptide 1, [D]-L^3,4,8,10-K4L8, reference compound] (H-KL[dL][dL]KLL[dL]K[dL]LK-NH2; N-terminus assumed)
MIC, C. neoformans ATCC 66031 [1]: 4.7 µg/mL (≈ 3.28 µM) | Activity against C. albicans [2]: inactive | MIC, C. albicans ATCC 10231 [2]: >200 µg/mL | Activity against A. niger [3]: inactive | MIC, A. niger ATCC 9642 [3]: >200 µg/mL | CC50 [4]: 90 µg/mL (≈ 62.7 µM) | Selectivity between melanoma and NIH-3T3 cell lines ([5]; B16 F10 vs NIH-3T3): active against both cell lines at similar concentration | CC50 [6]: 100 µg/mL (≈ 69.7 µM) | MIC against Mycoplasma (Mycoplasma pneumoniae): 50 µg/mL (≈ 34.8 µM)

CC(C)C[C@H](NC(=O)[C@H](CC(C)C)NC(=O)[C@@H](CCCCN)NC(=O)[C@@H](CCCCN)NC(=O)[C@H](CC(C)C)NC(=O)[C@@H](CC(C)C)NC(=O)[C@H](CCCNC(=N)N)NC(=O)[C@H](CC(C)C)NC(=O)[C@@H](CC(C)C)NC(=O)[C@H](CC(C)C)NC(=O)[C@@H](N)CCCCN)C(=O)N[C@@H](CCCNC(=N)N)C(=O)N[C@H](CC(C)C)C(=O)N[C@@H](CC(C)C)C(=O)N[C@@H](CCCCN)C(N)=O [Peptide 6, [D]-L^3,6,13,K^8,9-K4R2L9] (H-KL[dL]LR[dL]L[dK][dK]LLR[dL]LK-NH2; N-terminus assumed)
MIC, C. neoformans ATCC 66031 [1]: 1.5 µg/mL (≈ 0.806 µM) | MIC, C. albicans ATCC 10231 [2]: 150 µg/mL (≈ 80.6 µM) | MIC, A. niger ATCC 9642 [3]: 200 µg/mL (≈ 107 µM) | Activity against resistant bacteria VRE [7]: highly active | Activity against resistant bacteria MRSA [8]: highly active

CC(C)C[C@H](NC(=O)[C@H](CCCNC(=N)N)NC(=O)[C@@H](CC(C)C)NC(=O)[C@H](CC(C)C)NC(=O)[C@@H](N)CCCCN)C(=O)N[C@@H](CC(C)C)C(=O)N[C@H](CCCCN)C(=O)N[C@H](CCCCN)C(=O)N[C@@H](CC(C)C)C(=O)N[C@H](CC(C)C)C(=O)N[C@@H](CCCNC(=N)N)C(=O)N[C@@H](CC(C)C)C(=O)N[C@H](CC(C)C)C(=O)N[C@@H](CC(C)C)C(=O)N[C@@H](CCCCN)C(N)=O [Peptide 9, [D]-L^3,10,13,K^7,8-K4R2L9] (H-KL[dL]RLL[dK][dK]L[dL]RL[dL]LK-NH2)
PLT (human breast MCF-7 cells): 1.31e+06 µL⁻¹ | RBC (human breast MCF-7 cells): 11.18 ± 0.11 × 10^6/μl | Reduction of RBC (human breast MCF-7 cells): only a slight reduction in RBC | Reduction of WBC and platelets (human breast MCF-7 cells): did not cause a reduction in WBC and platelets | WBC (human breast MCF-7 cells): 2220 µL⁻¹ | Lethal Concentration (LC50), B16-F10 melanoma ([5]; 50% cell mortality after 24 h incubation, medium without serum): 2 µg/mL | CC50 at 24 h ([6]; mouse, NIH-3T3 fibroblasts): 30 µg/mL (≈ 16.1 µM) | Mortality ([9]; 12 mg/kg injected i.v.): 80% | Incidence of mortality ([9]; 12 mg/kg single i.v. injection): 4/5 | IC50 (A549 lung carcinoma): 1400 nM | IC50 [10]: 1600 nM | IC50 [11]: 1200 nM | IC50 [12]: 3300 nM | IC50 [13]: 2200 nM | MIC of liposomal peptide 9, S. aureus [14]: 12.5 µg/mL | MIC of liposomal peptide 9, A. baumannii [15]: 3.1 µg/mL
